Data from article PMC5011342, “A high throughput drug screening assay to identify compounds that promote oligodendrocyte differentiation using acutely dissociated and purified oligodendrocyte precursor cells” (BMC Research Notes, 2016).
Where two headings read alike, the source gives them in different places.

Tests used:
expanded OPCs = experiment: cells; conditions: for viability at 0.1 µM / viability at 1 µM / viability at 10 µM: Rattus norvegicus, 72 h
Method in brief: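 Toxicity screen: compounds added at 0.1, 1 and 10 µM to PDGF-AA-expanded OPCs in 96-well plates, 3-day incubation at 37 °C, 10% CO2, then alamarBlue 1:10 for 4 h with fluorescence readout. Results set screening doses of 10/2, 2/0.4 or 0.4/0.08 µM.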

[1] = system: acutely dissociated and purified rat OPCs; experiment: Acute OL differentiation assay (MBP expression/cell, immunofluorescent image quantification); type: cell-based
Method in brief: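 This acute differentiation assay used purified rat OPCs from postnatal day 6–7 pups, seeded into PDL/laminin-coated 96-well plates in differentiation medium lacking PDGF and FGF. Compounds were applied in quadruplicate after a 1–2 h preincubation at 37 °C, 10 % CO2, with 0.1 % DMSO negative and 40 ng/ml T3 positive controls in eight wells. After fixation on DIV4, anti-MBP immunofluorescence images yielded MBP expression/cell.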

[2] = read-out: 0.1 µM (% DMSO), alamarBlue viability of expanded OPCs, compound at 0.1 µM, sheet All Tox data
[3] = read-out: 1 µM (% DMSO), alamarBlue viability of expanded OPCs, compound at 1 µM, sheet All Tox data
[4] = read-out: 10 µM (% DMSO), alamarBlue viability of expanded OPCs, compound at 10 µM, sheet All Tox data
[5] = Rattus norvegicus, 0.4 uM test compound, relative to quetiapine, sheet "All OLga data", read-out: OL differentiation, 0.4 uM (% Quet)
[6] = Rattus norvegicus, 2 uM test compound, relative to quetiapine, sheet "All OLga data", read-out: OL differentiation, 2 uM (% Quet)
[7] = Rattus norvegicus, 10 uM test compound, relative to quetiapine, sheet "All OLga data", read-out: OL differentiation, 10 uM (% Quet)
[8] = alamarBlue viability of expanded OPCs, compound at 0.1 µM, relative to DMSO control
[9] = alamarBlue viability of expanded OPCs, compound at 1 µM, relative to DMSO control
[10] = alamarBlue viability of expanded OPCs, compound at 10 µM, relative to DMSO control
[11] = test compound at 2 uM, NCC library screen, sheet "All OLga data", relative to quetiapine
[12] = Rattus norvegicus, test compound at 2 uM, NCC library screen, sheet "All OLga data", relative to quetiapine, read-out: 2 uM (% Quet)
[13] = Rattus norvegicus, test compound at 10 uM, NCC library screen, sheet "All OLga data", relative to quetiapine, read-out: 10 uM (% Quet)
[14] = Rattus norvegicus, test compound at 2 uM, MBP expression relative to quetiapine, NCC library screen, sheet "All OLga data", read-out: 2 uM (% Quet)
[15] = Rattus norvegicus, test compound at 10 uM, MBP expression relative to quetiapine, NCC library screen, sheet "All OLga data", read-out: 10 uM (% Quet)
[16] = read-out: 0.1 µM (% DMSO), alamarBlue viability, NCC library compound at 0.1 µM, sheet "All Tox data"
[17] = read-out: 1 µM (% DMSO), alamarBlue viability, NCC library compound at 1 µM, sheet "All Tox data"
[18] = read-out: 10 µM (% DMSO), alamarBlue viability, NCC library compound at 10 µM, sheet "All Tox data"
[19] = alamarBlue viability, NCC library compound at 0.1 µM, sheet "All Tox data"
[20] = alamarBlue viability, NCC library compound at 1 µM, sheet "All Tox data"
[21] = alamarBlue viability, NCC library compound at 10 µM, sheet "All Tox data"
[22] = test compound at 0.4 uM, NCC library screen, sheet "All OLga data", relative to quetiapine

Row | SMILES | viability at 0.1 µM (expanded OPCs; [2]) [%] | viability at 1 µM (expanded OPCs; [3]) [%] | viability at 10 µM (expanded OPCs; [4]) [%] | activation at 2 µM [1, 6] [%] | 0.1 µM (% DMSO) (expanded OPCs; [8]) | 1 µM (% DMSO) (expanded OPCs; [9]) | 10 µM (% DMSO) (expanded OPCs; [10]) | activation at 2 µM [1, 12] [%] | activation at 10 µM [1, 13] [%] | other results
1 | CN1CCCCC1CCN1c2ccccc2Sc2ccc([S+](C)[O-])cc21 (stereo not drawn) [Mesoridazine] | 82.1 | 76.6 | 28.3 | -3.1 |  |  |  |  |  | activation at 0.4 µM [1, 5]: 6.6%
2 | Nc1c2c(nc3ccccc13)CCCC2 [Tacrine] | 80.5 | 80 | 77.8 | -10.2 |  |  |  |  |  | activation at 10 µM [1, 7]: 2.8%
3 | O=C(O)c1cc2ccccc2c(Cc2c(O)c(C(=O)O)cc3ccccc23)c1O.OCCOCCN1CCN(C(c2ccccc2)c2ccc(Cl)cc2)CC1 [Hydroxyzine pamoate salt] |  |  |  |  | 223.4 | 190.1 | 134.2 |  |  | 2 uM (% Quet) [1, 11]: 106.0 % Quet; 10 uM (% Quet) ([1]; test compound at 10 uM, NCC library screen, sheet "All OLga data", relative to quetiapine): 16.6 % Quet
4 | CCCc1c(OCCCCc2nnn[nH]2)ccc(C(C)=O)c1O [LY 171883] | 79.7 | 81.3 | 86.1 | -33.3 |  |  |  |  |  | activation at 10 µM [1, 7]: -5.4%
5 | CCN1CCN(C(=O)N[C@@H](C(=O)N[C@@H]2C(=O)N3[C@@H]2SC(C)(C)[C@@H]3C(=O)O)c2ccccc2)C(=O)C1=O [Piperacillin] |  |  |  |  | 89.0 | 88.3 | 88.0 | 2 | -7.9 | 
6 | CC[C@@]1(O)C(=O)OCc2c1cc1n(c2=O)Cc2cc3c(CN(C)C)c(O)ccc3nc2-1 [Topotecan] | 72 | 49.7 | 12.3 |  |  |  |  |  |  | activation at 0.08 µM ([1]; Rattus norvegicus, 0.08 uM test compound, relative to quetiapine, sheet "All OLga data", read-out: OL differentiation, 0.08 uM (% Quet)): -46.4%; activation at 0.4 µM [1, 5]: -124%
7 | Nc1ncn([C@@H]2O[C@H](CO)[C@@H](O)[C@H]2O)c(=O)n1 [Azacitidine] |  |  |  |  | 92.1 | 66.4 | 57.5 |  |  | activation at 2 µM [1, 14]: -59.1%; activation at 10 µM [1, 15]: -131%
8 | Nc1ccc(S(=O)(=O)c2ccc(N)cc2)cc1 [Dapsone] |  |  |  |  | 101.9 | 96.3 | 99.0 | -13.2 | -22.2 | 
9 | CCCCC(=O)O[C@H]1CC[C@H]2[C@@H]3CCc4cc(O)ccc4[C@H]3CC[C@]12C [Estradiol valerate] |  |  |  |  |  |  |  |  |  | viability at 0.1 µM (expanded OPCs; [16]): 93.2%; viability at 1 µM (expanded OPCs; [17]): 93.5%; viability at 10 µM (expanded OPCs; [18]): 9.6%; activation at 0.4 µM ([1]; Rattus norvegicus, test compound at 0.4 uM, NCC library screen, sheet "All OLga data", relative to quetiapine, read-out: 0.4 uM (% Quet)): -65.1%
10 | CCCCCCCCCOc1ccc2[nH]cc(CCN)c2c1 [5-Nonyloxytryptamine] |  |  |  |  |  |  |  |  |  | 0.1 µM (% DMSO) (expanded OPCs; [19]): 59.8 % DMSO; 1 µM (% DMSO) (expanded OPCs; [20]): 9.3 % DMSO; 10 µM (% DMSO) (expanded OPCs; [21]): 8.5 % DMSO; 0.08 uM (% Quet) ([1]; test compound at 0.08 uM, NCC library screen, sheet "All OLga data", relative to quetiapine): -24.6 % Quet; 0.4 uM (% Quet) [1, 22]: -339.9 % Quet
11 | Cc1occc(=O)c1O [Maltol] |  |  |  |  |  |  |  | -7 | 8.2 | viability at 0.1 µM (expanded OPCs; [16]): 83.5%; viability at 1 µM (expanded OPCs; [17]): 91.1%; viability at 10 µM (expanded OPCs; [18]): 84.9%
12 | O=C(O)C[C@H](O)C[C@H](O)/C=C/c1c(C2CC2)nc2ccccc2c1-c1ccc(F)cc1 [Itavastain] |  |  |  |  |  |  |  |  |  | 0.1 µM (% DMSO) (expanded OPCs; [19]): 114.3 % DMSO; 1 µM (% DMSO) (expanded OPCs; [20]): 70.7 % DMSO; 10 µM (% DMSO) (expanded OPCs; [21]): 19.8 % DMSO; 0.4 uM (% Quet) [1, 22]: -60.9 % Quet; 2 uM (% Quet) [1, 11]: -74.4 % Quet
13 | CC(C(O)c1ccc(O)cc1)N1CCC(Cc2ccccc2)CC1 (stereo not drawn) [Ifenprodil, reference compound] | 93 | 135 | 103 | 162 |  |  |  |  |  | activation at 10 µM [1, 7]: 154%; EC50 ([1]; Rattus norvegicus, average EC50 for induction of OL differentiation from independent biological replicates, eight concentrations): 400 nM; hit in OL differentiation assay, MRF-TMC ([1]; ● = confirmed hit in this paper's assay): ●
14 | CCOC(=O)O[C@]1(C(=O)OCCl)CC[C@H]2[C@@H]3CCC4=CC(=O)C=C[C@]4(C)[C@H]3[C@@H](O)C[C@@]21C [Loteprednol etabonate] |  |  |  | -10.9 |  |  |  |  |  | viability at 0.1 µM (expanded OPCs; [16]): 104%; viability at 1 µM (expanded OPCs; [17]): 98.4%; viability at 10 µM (expanded OPCs; [18]): 86.4%; activation at 10 µM [1, 7]: -29.2%
15 | NS(=O)(=O)c1cc2c(cc1C(F)(F)F)NCNS2(=O)=O [Hydroflumethiazide] |  |  |  |  | 104.6 | 96.9 | 87.1 | -24.5 | -39 | 
16 | CC(c1cc2ccccc2s1)N(O)C(N)=O (stereo not drawn) [Zileuton] | 104 | 89.4 | 77.4 | -2.6 |  |  |  |  |  | activation at 10 µM [1, 7]: -52.1%
17 | Nc1ccn([C@@H]2O[C@H](CO)[C@@H](O)[C@@H]2O)c(=O)n1 [Cytarabine] | 60.2 | 56.2 | 43.1 | 5.8 |  |  |  |  |  | activation at 0.4 µM [1, 5]: -18.7%
18 | C[C@H](CCC(=O)O)[C@H]1CC[C@H]2[C@@H]3C(=O)C[C@@H]4CC(=O)CC[C@]4(C)[C@H]3CC(=O)[C@]12C [Dehydrocholic Acid] |  |  |  |  |  |  |  | -12.3 | -5.3 | viability at 0.1 µM (expanded OPCs; [16]): 101%; viability at 1 µM (expanded OPCs; [17]): 106%; viability at 10 µM (expanded OPCs; [18]): 109%
19 | CCCC(=O)O[C@]1(C(=O)COC(=O)CC)CC[C@H]2[C@@H]3CCC4=CC(=O)CC[C@]4(C)[C@H]3[C@@H](O)C[C@@]21C [Hydrocortisone buteprate] |  |  |  |  | 112.3 | 102.8 | 90.3 | 19.4 | 13.5 | 
20 | CCCCN1CCCCC1C(=O)Nc1c(C)cccc1C (stereo not drawn) [Bupivacaine] |  |  |  |  |  |  |  | -1 | 7 | viability at 0.1 µM (expanded OPCs; [16]): 79.1%; viability at 1 µM (expanded OPCs; [17]): 83.4%; viability at 10 µM (expanded OPCs; [18]): 70.5%
21 | CN/C(=N/CCSCc1nc[nH]c1C)NC#N [Cimetidine] |  |  |  |  | 89.7 | 89.2 | 92.3 | 2.9 | -11.1 | 
22 | Cc1onc(-c2c(Cl)cccc2Cl)c1C(=O)N[C@@H]1C(=O)N2[C@@H]1SC(C)(C)[C@@H]2C(=O)O [Dicloxacillin] |  |  |  |  | 93.5 | 91.4 | 76.5 |  |  | activation at 2 µM [1, 14]: -0.7%; activation at 10 µM [1, 15]: -16.9%
